Test results reported in PubChem BioAssay (NCI).
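Dose response: 5 concentrations. Exposure: 48 h. Format: 96-well plates. Endpoint: linear interpolation; highest concentration if not reached. GI50: concentration for 50% inhibition of growth. TGI is the concentration that stops growth completely.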

Assays:
Test in all cases: NCI anticancer screen, dose series, 48 h
[1] = test system: A549 NSCLC
[2] = test system: NCI-H23 lung
[3] = test system: OVCAR-8 ovarian
[4] = test system: EKVX NSCLC
[5] = test system: SK-MEL-5 melanoma
[6] = test system: MOLT-4 leukemia
[7] = test system: HS 578T breast
[8] = test system: HOP-62 NSCLC
[9] = test system: NCI/ADR-RES ovarian
[10] = test system: M14 melanoma
[11] = test system: PC-3 prostate
[12] = test system: SF-295 CNS
[13] = test system: HCC-2998 colon
[14] = test system: SF-268 CNS
[15] = test system: CAKI-1 renal
[16] = test system: HT29 colon
[17] = test system: LOX IMVI melanoma
[18] = test system: CCRF-CEM leukemia
[19] = test system: IGROV1 ovarian
[20] = test system: SNB-75 CNS
[21] = test system: NCI-H522 lung
[22] = test system: SN12C renal
[23] = test system: SNB-19 CNS
[24] = test system: SK-OV-3 ovarian
[25] = test system: SW-620 colon
[26] = test system: MDA-MB-231 breast
[27] = test system: HCT-116 colon
[28] = test system: RXF 393 renal
[29] = test system: U251 CNS
[30] = test system: DU-145 prostate
[31] = test system: UACC-62 melanoma
[32] = test system: HL-60(TB) leukemia
[33] = test system: MCF7 breast
[34] = test system: UO-31 renal
[35] = test system: UACC-257 melanoma
[36] = test system: MDA-MB-435
[37] = test system: SR leukemia
[38] = test system: OVCAR-4 ovarian
[39] = test system: SK-MEL-2 melanoma
[40] = test system: OVCAR-5 ovarian
[41] = test system: MALME-3M melanoma
[42] = test system: NCI-H460 lung
[43] = test system: 786-0 renal
[44] = test system: HOP-92 NSCLC
[45] = test system: T-47D breast
[46] = test system: BT-549 breast
[47] = test system: A498 renal
[48] = test system: HCT-15 colon
[49] = test system: ACHN renal
[50] = test system: SK-MEL-28 melanoma
[51] = test system: RPMI-8226 leukemia
[52] = test system: COLO 205 colon
[53] = test system: TK-10 renal
[54] = test system: KM12 colon
[55] = test system: SF-539 CNS
[56] = test system: OVCAR-3 ovarian
[57] = test system: NCI-H226 lung
[58] = test system: K-562 leukemia

## O=[N+]([O-])c1cc(F)c2cccnc2c1O
[1]
  GI50: 6.94 µM
  TGI: > 100 µM
[2]
  GI50: 7.73 µM
  TGI: > 100 µM
[3]
  GI50: 11.3 µM
  TGI: > 100 µM
[4]
  GI50: 22.9 µM
  TGI: > 100 µM
[5]
  GI50: 16.5 µM
  TGI: 73.7 µM
[6]
  GI50: 2.43 µM
  TGI: 11 µM
[7]
  GI50: 35.8 µM
  TGI: > 100 µM
[8]
  GI50: 13.6 µM
  TGI: > 100 µM
[9]
  GI50: 3.61 µM
  TGI: 45.3 µM
[10]
  GI50: 7.56 µM
  TGI: 40.9 µM
[11]
  GI50: 4.47 µM
  TGI: > 100 µM
[12]
  GI50: 3.77 µM
  TGI: 86.6 µM
[13]
  GI50: 10.6 µM
  TGI: > 100 µM
[14]
  GI50: 6.21 µM
  TGI: > 100 µM
[15]
  GI50: 3.82 µM
  TGI: 25.8 µM
[16]
  GI50: 4.55 µM
  TGI: 20.7 µM
[17]
  GI50: 4.63 µM
  TGI: > 100 µM
[18]
  GI50: 3.46 µM
  TGI: 26.7 µM
[19]
  GI50: 2.5 µM
  TGI: 14.7 µM
[20]
  GI50: 4 µM
  TGI: > 100 µM
[21]
  GI50: 4.01 µM
  TGI: 26 µM
[22]
  GI50: 22.1 µM
  TGI: > 100 µM
[23]
  GI50: 9.24 µM
  TGI: > 100 µM
[24]
  GI50: 26.3 µM
  TGI: > 100 µM
[25]
  GI50: 3.44 µM
  TGI: > 100 µM
[26]
  GI50: 25.8 µM
  TGI: > 100 µM
[27]
  GI50: 6.93 µM
  TGI: > 100 µM
[28]
  GI50: 17.5 µM
  TGI: 76.3 µM
[29]
  GI50: 4.9 µM
  TGI: 90.3 µM
[30]
  GI50: 6.28 µM
  TGI: > 100 µM
[31]
  GI50: 11 µM
  TGI: 55.6 µM
[32]
  GI50: 2.48 µM
  TGI: 8.12 µM
[33]
  GI50: 17.4 µM
  TGI: 74.9 µM
[34]
  GI50: 2.34 µM
  TGI: 18.2 µM
[35]
  GI50: 15.5 µM
  TGI: 58.8 µM
[36]
  GI50: 15 µM
  TGI: > 100 µM
[37]
  GI50: 1.96 µM
  TGI: 6.96 µM
[38]
  GI50: 6.63 µM
  TGI: 65.5 µM
[39]
  GI50: 10.1 µM
  TGI: 94.4 µM
[40]
  GI50: 35.8 µM
  TGI: > 100 µM
[41]
  GI50: 3.89 µM
  TGI: 28.8 µM
[42]
  GI50: 3.83 µM
  TGI: 30.5 µM
[43]
  GI50: 10.2 µM
  TGI: 94.6 µM
[44]
  GI50: 2.84 µM
  TGI: 9.01 µM
[45]
  GI50: 21.2 µM
  TGI: > 100 µM
[46]
  GI50: 19 µM
  TGI: > 100 µM
[47]
  GI50: 6.84 µM
  TGI: 42.4 µM
[48]
  GI50: 6.73 µM
  TGI: > 100 µM
[49]
  GI50: 6.06 µM
  TGI: 79.7 µM
[50]
  GI50: 21.2 µM
  TGI: > 100 µM
[51]
  GI50: 4.05 µM
  TGI: 24.3 µM
[52]
  GI50: 16.2 µM
  TGI: 54.2 µM
[53]
  GI50: 14.9 µM
  TGI: > 100 µM
[54]
  GI50: 7.95 µM
  TGI: > 100 µM
[55]
  GI50: 13.6 µM
  TGI: > 100 µM
[56]
  GI50: 3.93 µM
  TGI: > 100 µM
[57]
  GI50: 30.5 µM
  TGI: > 100 µM

## COc1cc2c(cc1OCCCCCOc1cc3c(cc1OC)C(=O)N1CCC[C@H]1CN3)N=C[C@@H]1CCCN1C2=O
[1]
  TGI: 27 µM
[2]
  TGI: 20.5 µM
[3]
  TGI: 24.2 µM
[4]
  TGI: > 100 µM
[5]
  TGI: 12.2 µM
[58]
  TGI: 17.6 µM
[6]
  TGI: 9.24 µM
[7]
  TGI: 50.4 µM
[8]
  TGI: 31.5 µM
[9]
  TGI: > 100 µM
[10]
  TGI: 10.8 µM
[11]
  TGI: 61.5 µM
[12]
  TGI: 34 µM
[14]
  TGI: 61.8 µM
[15]
  TGI: 44.1 µM
[16]
  TGI: 37.3 µM
[17]
  TGI: 3.06 µM
[18]
  TGI: 0.592 µM
[19]
  TGI: 21.3 µM
[20]
  TGI: 95.2 µM
[21]
  TGI: 3.65 µM
[22]
  TGI: 18.7 µM
[23]
  TGI: > 100 µM
[24]
  TGI: > 100 µM
[25]
  TGI: 23.9 µM
[26]
  TGI: 9.48 µM
[27]
  TGI: 24.1 µM
[28]
  TGI: 72 µM
[29]
  TGI: 5.24 µM
[30]
  TGI: > 100 µM
[31]
  TGI: 6.72 µM
[32]
  TGI: 30 µM
[33]
  TGI: > 100 µM
[34]
  TGI: 30.9 µM
[35]
  TGI: 31.9 µM
[36]
  TGI: 20.1 µM
[37]
  TGI: 1.11 µM
[38]
  TGI: > 100 µM
[39]
  TGI: 11.5 µM
[40]
  TGI: 69.4 µM
[41]
  TGI: 21.6 µM
[42]
  TGI: > 100 µM
[43]
  TGI: 63.2 µM
[44]
  TGI: 75.1 µM
[45]
  TGI: > 100 µM
[46]
  TGI: 34.9 µM
[48]
  TGI: 43.8 µM
[49]
  TGI: 27.6 µM
[50]
  TGI: 28.2 µM
[52]
  TGI: > 100 µM
[53]
  TGI: 63.3 µM
[54]
  TGI: 15.2 µM
[55]
  TGI: 20.4 µM
[56]
  TGI: 44.7 µM
[57]
  TGI: 29.1 µM
